Results reported in US20200113950A1, “Human microbiota derived N-acyl amides for the treatment of human disease” (The Rockefeller University, priority 2017, published 2020).
“Also recorded” adds a separate entry of the source.

Tests used:
GPR119 [1] = biological target: T1, GPR119 (Homo sapiens, UniProt Q8TDV5); assay: β-arrestin cell-based GPCR assay (DiscoveRx), agonist mode, GPR119; conditions: for interaction with GPR119: GPCR screen and dose response, FIG. 8
T1 sequence (Q8TDV5 1-335): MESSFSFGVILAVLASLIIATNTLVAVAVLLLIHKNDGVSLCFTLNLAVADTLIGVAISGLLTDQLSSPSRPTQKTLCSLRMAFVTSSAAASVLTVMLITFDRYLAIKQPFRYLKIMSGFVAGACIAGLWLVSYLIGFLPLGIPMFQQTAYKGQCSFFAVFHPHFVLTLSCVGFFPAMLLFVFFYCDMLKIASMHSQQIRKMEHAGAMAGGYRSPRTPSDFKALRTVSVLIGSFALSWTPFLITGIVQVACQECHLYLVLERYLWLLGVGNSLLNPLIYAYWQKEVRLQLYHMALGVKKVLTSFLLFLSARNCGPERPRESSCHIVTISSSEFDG
Procedure: (§1) The major N-acyl amide analog isolated from each family was assayed for agonist and antagonist activity against a panel of 240 human GPCRs (FIG. 3 and FIG. 8). […] The maximal activation of GPR119 and S1PR4 by the bacterial N-acyl amides was similar to the endogenous ligand (GPR119 100%, S1PR4 80%). Interactions between the bacterial N-acyl amides and GPCRs were also specific (FIG. 3A and FIG. 3B).
(§2) For each of the 6 N-acyl amide families (1-6) the analogue produced at the highest level in the heterologous expression experiments was assayed for GPCR activity. In the case of family 4 the major lysine analogue (N-3-hydroxyoleoyl lysine) was screened. Using β-arrestin cell-based assays at 10 uM ligand concentration, agonist and antagonist activity was assessed by DiscoveRx against 168 GPCRs with known ligands as well as 72 orphan GPCRs. […] Synthetic N-acyl amides were assayed in the same fashion.

S1PR3 = S1PR3 (Homo sapiens, UniProt Q99500); assay: β-arrestin GPCR screen, agonist mode, S1PR3; type: cell-based
Procedure: (§3) Using β-arrestin cell-based assays at 10 uM ligand concentration, agonist and antagonist activity was assessed by DiscoveRx against 168 GPCRs with known ligands as well as 72 orphan GPCRs. […] Synthetic N-acyl amides were assayed in the same fashion.

S1PR1 = S1PR1 (Homo sapiens, UniProt P21453); assay: β-arrestin GPCR screen, agonist mode, S1PR1; type: cell-based
Procedure: as §3

[2] = biological target: T2, sphingosine-1-phosphate receptor 4 (S1PR4) (Homo sapiens, UniProt O95977); assay: β-arrestin cell-based GPCR assay (DiscoveRx), agonist mode, S1PR4; conditions: for agonist activity at / interaction with S1PR4: GPCR screen
T2 sequence (O95977 1-384): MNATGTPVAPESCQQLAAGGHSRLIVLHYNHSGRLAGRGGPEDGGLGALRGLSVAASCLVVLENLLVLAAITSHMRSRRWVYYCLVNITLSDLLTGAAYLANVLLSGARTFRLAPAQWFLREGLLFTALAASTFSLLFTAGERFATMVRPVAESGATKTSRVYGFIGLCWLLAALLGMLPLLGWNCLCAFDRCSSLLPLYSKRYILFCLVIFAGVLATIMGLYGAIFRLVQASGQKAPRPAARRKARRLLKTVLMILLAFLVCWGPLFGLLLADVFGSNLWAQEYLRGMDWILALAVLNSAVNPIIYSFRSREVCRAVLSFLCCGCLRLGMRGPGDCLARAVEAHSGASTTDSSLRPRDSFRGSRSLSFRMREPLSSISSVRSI
Procedure: The major N-acyl amide analog isolated from each family was assayed for agonist and antagonist activity against a panel of 240 human GPCRs (FIG. 3 and FIG. 8).
as §3

S1PR2 = S1PR2 (Homo sapiens, UniProt O95136); assay: β-arrestin GPCR screen, agonist mode, S1PR2; type: cell-based
Procedure: as §3

GPR119 [3] = biological target: T1, GPR119; assay: cAMP secondary assay in ACTOne HEK293 cells transfected with GPR119; type: cell-based; set-up: expressed in transfected cells; host or cells: ACTOne HEK293 cells; conditions: for cellular cAMP concentration: HEK293 cells stably transfected with GPR119 vs native cells
Procedure: FIG. 10 depicts a secondary assay of GPR119. ACTOne HEK293 cells (control) and ACTOne HEK293 cells transfected with GPR119 were exposed to equimolar concentrations of the endogenous GPR119 ligand oleoylethanolamide or the bacterial ligand N-oleoyl serinol. Relative fluorescent intensity was recorded for each ligand concentration compared to background signal. All data points were performed in quadruplicate and error bars represent SD around the mean. […] The DCEA [5-(N-Ethylcarboxamido)adenosine] control is presented to confirm cAMP response of the parental cell line.
(§4) GPR119 is the most extensively studied of the GPCRs activated by bacterial N-acyl amides (FIG. 4). Mechanisms that link endogenous GPR119 agonists (OEA, 2-OG) to changes in host phenotype are well defined as a result of the exploration of GPR119 as a therapeutic target for the treatment of diabetes and obesity. In fact, synthetic small molecule GPR119 agonists are in clinical trials as treatment for both diseases (Ritter et al., 2016, J Med Chem 59:3579-92; Nunez et al., 2014, PLoS One 9:e92494; Ha et al., 2014, Arch Pharm Res 37:671-8; Katz et al., 2012, Diabetes Obes Metab 14:709-16). GPR119 agonists are thought to affect diverse metabolic functions, primarily glucose homeostasis but also gastric emptying and appetite, in vivo through GPR119-dependent hormone release from enteroendocrine cells (GLP-1, GIP, PYY) and pancreatic β-cells (insulin) (Flock et al., 2011, Endorinol 152:374-83; Overton et al., 2006, Cell Metab 3:167-75; Chu et al., 2007, Endocrinol 148:2601-9; Chu et al., 2008, Endocrinol 149:2038-47; Lauffer et al., 2009, Diabetes 58:1058-66; Serrano et al., 2011, Neuropharmacol 60:593-601). Murine enteroendocrine GLUTag cells have been used as a model system for measuring the ability of potential GPR119 agonists to induce GLP-1 release. […] To provide an orthogonal measurement of GPR119 activation by N-acyl serinols, HEK293 cells were stably transfected with a GPR119 expression construct.

[4] = mice; cited from earlier work
GLUTag cells = assay: GLP-1 release from GLUTag cells; type: cell-based, Murine; conditions: equimolar concentrations, 2 hours
Source text: as §4
Oleoyl ethanolamide and 2-oleoyl glycerol were purchased from Cayman Chemical Company and resuspended in DMSO to a concentration of 10 mM. N-oleoyl serinol was isolated and purified in the same manner as N-palmitoyl serinol described above and confirmed by ^1H NMR and HRMS. N-oleoyl serinol was resuspended at 10 mM concentration in DMSO. GLUTag cells were obtained from the Mangelsdorf Lab (University of Texas Southwestern) with permission from Daniel Drucker (Mount Sinai Hospital Toronto). […] Media was then collected, centrifuged at 500×g (4° C.) for 5 minutes and cell free supernatant was analyzed for GLP-1 level using the Active GLP-1 V2 kit (Mesoscale Discovery). […]

PTGER4 = PTGER4 (Homo sapiens, UniProt P35408); assay: β-arrestin cell-based GPCR assay (DiscoveRx), antagonist mode, PTGER4
Procedure: as §1, §2

PTGIR = PTGIR (Homo sapiens, UniProt P43119); assay: β-arrestin cell-based GPCR assay (DiscoveRx), antagonist mode, PTGIR
Procedure: as §1, §2

G2A = biological target: T3, G2A (Homo sapiens, UniProt Q9UNW8); assay: β-arrestin cell-based GPCR assay (DiscoveRx), agonist mode, orphan receptor G2A; conditions: for activation of G2A: GPCR screen
T3 sequence (Q9UNW8 1-380): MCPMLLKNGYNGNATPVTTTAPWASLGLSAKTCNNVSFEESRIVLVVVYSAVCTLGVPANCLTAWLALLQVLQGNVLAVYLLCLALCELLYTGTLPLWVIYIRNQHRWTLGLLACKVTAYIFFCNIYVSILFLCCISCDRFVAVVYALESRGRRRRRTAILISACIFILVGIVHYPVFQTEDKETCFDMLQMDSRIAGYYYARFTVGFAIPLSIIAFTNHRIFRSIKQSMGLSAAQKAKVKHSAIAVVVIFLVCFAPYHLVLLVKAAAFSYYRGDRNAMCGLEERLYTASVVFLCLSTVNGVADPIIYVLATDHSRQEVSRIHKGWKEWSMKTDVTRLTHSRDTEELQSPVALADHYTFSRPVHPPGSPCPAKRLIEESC
Procedure: as §1, §2

Sequence of S1PR3 (Q99500 whole entry): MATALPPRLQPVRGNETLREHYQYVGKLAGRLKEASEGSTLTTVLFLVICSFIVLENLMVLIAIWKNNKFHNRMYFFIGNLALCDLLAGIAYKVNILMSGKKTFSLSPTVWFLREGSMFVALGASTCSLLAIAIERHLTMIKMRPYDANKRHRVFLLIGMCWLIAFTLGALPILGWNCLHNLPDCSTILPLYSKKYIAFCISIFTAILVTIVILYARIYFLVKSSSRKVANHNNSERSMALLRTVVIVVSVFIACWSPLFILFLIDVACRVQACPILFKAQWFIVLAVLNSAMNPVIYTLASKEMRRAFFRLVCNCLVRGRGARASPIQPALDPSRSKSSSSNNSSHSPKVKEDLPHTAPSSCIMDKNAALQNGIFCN
Sequence of S1PR1 (P21453 whole entry): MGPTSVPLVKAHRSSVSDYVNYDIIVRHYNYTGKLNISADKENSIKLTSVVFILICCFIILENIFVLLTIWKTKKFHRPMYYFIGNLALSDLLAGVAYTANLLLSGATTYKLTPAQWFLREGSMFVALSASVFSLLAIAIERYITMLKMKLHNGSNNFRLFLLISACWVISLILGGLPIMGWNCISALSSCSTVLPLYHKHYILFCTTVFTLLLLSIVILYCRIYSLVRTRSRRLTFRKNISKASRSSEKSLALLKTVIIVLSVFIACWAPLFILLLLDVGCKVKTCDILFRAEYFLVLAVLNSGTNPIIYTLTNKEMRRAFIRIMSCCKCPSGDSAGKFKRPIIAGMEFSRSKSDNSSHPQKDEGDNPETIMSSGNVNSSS
Sequence of PTGIR (P43119 whole entry): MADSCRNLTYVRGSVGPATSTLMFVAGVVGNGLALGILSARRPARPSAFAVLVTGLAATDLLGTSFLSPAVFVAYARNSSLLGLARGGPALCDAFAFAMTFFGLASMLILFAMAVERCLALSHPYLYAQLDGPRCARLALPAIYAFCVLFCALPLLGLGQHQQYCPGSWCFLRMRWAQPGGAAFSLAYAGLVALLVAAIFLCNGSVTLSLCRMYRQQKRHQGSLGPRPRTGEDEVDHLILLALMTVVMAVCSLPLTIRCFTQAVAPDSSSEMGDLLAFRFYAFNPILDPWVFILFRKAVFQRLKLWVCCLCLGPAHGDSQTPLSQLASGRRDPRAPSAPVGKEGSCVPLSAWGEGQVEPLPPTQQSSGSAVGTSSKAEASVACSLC
Sequence of PTGER4 (P35408 whole entry): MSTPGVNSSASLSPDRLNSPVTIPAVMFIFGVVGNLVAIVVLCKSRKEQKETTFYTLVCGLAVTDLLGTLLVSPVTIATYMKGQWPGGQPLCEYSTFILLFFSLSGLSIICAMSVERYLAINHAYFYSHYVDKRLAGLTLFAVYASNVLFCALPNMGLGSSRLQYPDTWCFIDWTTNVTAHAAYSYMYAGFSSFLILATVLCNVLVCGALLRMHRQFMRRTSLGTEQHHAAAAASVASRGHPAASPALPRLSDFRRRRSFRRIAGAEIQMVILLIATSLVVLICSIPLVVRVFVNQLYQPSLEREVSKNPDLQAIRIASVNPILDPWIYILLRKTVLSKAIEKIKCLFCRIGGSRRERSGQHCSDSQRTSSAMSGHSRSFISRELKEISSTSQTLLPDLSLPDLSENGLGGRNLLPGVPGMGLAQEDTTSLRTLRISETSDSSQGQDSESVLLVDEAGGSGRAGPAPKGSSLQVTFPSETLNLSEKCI
Sequence of S1PR2 (O95136 whole entry): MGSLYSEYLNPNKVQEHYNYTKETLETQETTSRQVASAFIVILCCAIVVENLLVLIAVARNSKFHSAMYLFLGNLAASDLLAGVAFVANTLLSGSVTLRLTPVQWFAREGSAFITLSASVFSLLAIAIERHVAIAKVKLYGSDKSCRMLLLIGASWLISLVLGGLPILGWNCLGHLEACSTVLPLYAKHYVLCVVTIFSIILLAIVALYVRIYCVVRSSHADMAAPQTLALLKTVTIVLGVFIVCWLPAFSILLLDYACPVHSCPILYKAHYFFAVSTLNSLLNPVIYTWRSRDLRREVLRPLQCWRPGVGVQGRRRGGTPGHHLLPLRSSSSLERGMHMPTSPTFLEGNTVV

SMILES: CCCCCCCCCCCCCCCC(=O)NC(CO)CO [N-palmitoyl serinol]
- interaction with GPR119 (GPR119 [1]): interacts with GPR119
- Emax (GPR119 [1]; relative to endogenous ligand, read-out: maximal activation of GPR119 compared with the endogenous ligand): 100%

SMILES: CCCCCCCCCCCCC/C=C/[C@@H](O)[C@@H](N)COP(=O)(O)O [Compound S1P, sphingosine-1-phosphate, reference compound]
- activation of S1PR3 (S1PR3): activates
- activation of S1PR1 (S1PR1): activates
- agonist activity at / interaction with S1PR4 [2]: activates
- EC50 ([2]; β-arrestin assay, dose response in duplicate, read-out: EC50, activation of S1PR4): 0.09 µM
- activation of S1PR2 (S1PR2): activates

SMILES: CCCCCCCC/C=C\CCCCCCCC(=O)NCCO [OEA, oleoylethanolamide]
- EC50 (GPR119 [3]; HEK293 cells expressing GPR119, quadruplicate, read-out: EC50, cAMP response): 5.1 µM
- cellular cAMP concentration (GPR119 [3]): increased cellular cAMP concentrations in a GPR119 dependent fashion
- EC50 (GPR119 [1]; β-arrestin assay, dose response in duplicate, read-out: EC50, activation of GPR119): 7 µM
- blood glucose in OGTT after intravenous delivery [4]: fails to lower blood glucose
- GLP-1 secretion (GLUTag cells): induced GLP-1 secretion to the same magnitude

SMILES: CCCCCCCCCCCCCC(O)CC(=O)NC(CCCN)C(=O)O (stereo not shown) [N-3-hydroxypalmitoyl ornithine, N-3-OH-palmitoyl ornithine]
- activation of S1PR3 (S1PR3): did not activate
- activation of S1PR1 (S1PR1): did not activate
- agonist activity at / interaction with S1PR4 [2]: specific agonist of S1PR4; also recorded: interacts with S1PR4
- Emax ([2]; relative to endogenous ligand, read-out: maximal activation of S1PR4 compared with the endogenous ligand): 80%
- activation of S1PR2 (S1PR2): did not activate

SMILES: CCCCCCCCCCCC(O)CC(=O)OC(CCCCCCC)CC(=O)N[C@@H](CCC(N)=O)C(=O)O (stereo partly shown) [N-acyloxyacyl glutamine, 3-[(3-OH-myristoyl)oxy]decanoyl glutamine]
- antagonism of PTGER4 (PTGER4; antagonist screen): antagonized
- IC50 (PTGER4; in the presence of endogenous ligand, read-out: IC50, antagonist activity against PTGER4): 43 µM
- antagonism of PTGIR (PTGIR; antagonist screen): specifically antagonized
- IC50 (PTGIR; in the presence of endogenous ligand, read-out: IC50, antagonist activity against PTGIR): 15 µM

SMILES: CCCCCCCC/C=C\CCCCCCCC(=O)OC(CO)CO [Compound 2-OG, 2-oleoyl glycerol]
- GLP-1 secretion (GLUTag cells): induced GLP-1 secretion to the same magnitude

SMILES: CCCCCCCCCCCCCCCC(=O)NCC(=O)O [N-palmitoyl glycine]
- activation of G2A (G2A): activates G2A

SMILES: CCCCCCCCCCCCCC(O)CC(=O)N[C@@H](CCCCN)C(=O)O (stereo partly shown) [N-3-hydroxypalmitoyl lysine]
- agonist activity at / interaction with S1PR4 [2]: specific agonist of S1PR4; also recorded: interacts with S1PR4

SMILES: CCCCCCCCCCCCCCCC(=O)N[C@@H](C)C(=O)O [N-palmitoyl alanine]
- activation of G2A (G2A): activate G2A

SMILES: CCCCCCCCCCCCCC(O)CC(=O)NCC(=O)O (stereo not shown) [N-3-hydroxypalmitoyl glycine]
- activation of G2A (G2A): activate G2A

SMILES: CCCCCCCC/C=C\CCCCCCCC(=O)NC(CO)CO [N-oleoyl serinol]
- cellular cAMP concentration (GPR119 [3]): increased cellular cAMP concentrations in a GPR119 dependent fashion
- interaction with GPR119 (GPR119 [1]): interacts with GPR119
- maximum GPR119 activation compared with OEA (GPR119 [1]; β-arrestin assay, FIG. 5A): ~2 fold
- GLP-1 secretion (GLUTag cells): induced GLP-1 secretion to the same magnitude

SMILES: CCCCCCCCCCCCCC(=O)N[C@@H](C)C(=O)O [N-myristoyl alanine]
- EC50 (G2A; β-arrestin assay, dose response, read-out: EC50, activation of G2A): 3 µM
